Experimental data published in article PMC8213057, “Targeting ALK2: An Open Science Approach to Developing Therapeutics for the Treatment of Diffuse Intrinsic Pontine Glioma” (Journal of Medicinal Chemistry, 2020).

Tests used:
SIK2 = biological target: T1, SIK2 (Homo sapiens, UniProt Q9H0K1); experiment: 375-member kinase panel; assay type: biochemical; conditions: Run 1, Run 2; for % enzyme activity: 1 μM; for remaining activity at 1 µM: read-out: % enzyme activity, 1 μM
T1 construct: purchased Reaction Biology Corporation

KSR1 = biological target: T2, KSR1 (Homo sapiens, UniProt Q8IVT5); conditions: 1 μM; Run 1, Run 2
T2 sequence (Q8IVT5 1-923): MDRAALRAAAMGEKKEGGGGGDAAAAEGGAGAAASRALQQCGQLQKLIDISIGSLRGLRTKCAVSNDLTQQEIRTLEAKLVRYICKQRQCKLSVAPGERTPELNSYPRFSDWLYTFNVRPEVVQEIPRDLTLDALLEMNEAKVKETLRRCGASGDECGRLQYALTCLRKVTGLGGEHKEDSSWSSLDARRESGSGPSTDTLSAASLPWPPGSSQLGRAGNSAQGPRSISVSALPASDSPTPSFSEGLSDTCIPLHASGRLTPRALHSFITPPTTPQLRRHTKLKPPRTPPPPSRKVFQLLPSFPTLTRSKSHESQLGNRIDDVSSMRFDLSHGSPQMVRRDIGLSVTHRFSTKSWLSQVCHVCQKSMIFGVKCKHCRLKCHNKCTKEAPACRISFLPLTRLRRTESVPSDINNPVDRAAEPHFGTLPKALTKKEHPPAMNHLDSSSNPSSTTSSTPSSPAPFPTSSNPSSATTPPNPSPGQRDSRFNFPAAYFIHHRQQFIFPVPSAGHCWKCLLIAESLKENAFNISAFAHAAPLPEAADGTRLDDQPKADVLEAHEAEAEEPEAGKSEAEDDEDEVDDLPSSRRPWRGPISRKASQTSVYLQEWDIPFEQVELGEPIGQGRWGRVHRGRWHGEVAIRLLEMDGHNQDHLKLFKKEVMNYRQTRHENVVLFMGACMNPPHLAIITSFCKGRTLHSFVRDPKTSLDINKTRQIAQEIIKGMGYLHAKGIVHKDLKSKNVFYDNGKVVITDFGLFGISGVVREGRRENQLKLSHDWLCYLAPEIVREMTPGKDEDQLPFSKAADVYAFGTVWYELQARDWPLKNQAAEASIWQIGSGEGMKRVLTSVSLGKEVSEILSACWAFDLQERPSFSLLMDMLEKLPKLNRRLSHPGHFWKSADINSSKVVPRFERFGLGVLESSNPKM

MST3/STK24 = MST3/STK24 (Homo sapiens, UniProt Q9Y6E0); conditions: 1 μM; Run 1, Run 2
PDK1/PDPK1 = biological target: T3, PDK1/PDPK1 (Homo sapiens, UniProt O15530); conditions: 1 μM; Run 1, Run 2
T3 sequence (O15530 1-556): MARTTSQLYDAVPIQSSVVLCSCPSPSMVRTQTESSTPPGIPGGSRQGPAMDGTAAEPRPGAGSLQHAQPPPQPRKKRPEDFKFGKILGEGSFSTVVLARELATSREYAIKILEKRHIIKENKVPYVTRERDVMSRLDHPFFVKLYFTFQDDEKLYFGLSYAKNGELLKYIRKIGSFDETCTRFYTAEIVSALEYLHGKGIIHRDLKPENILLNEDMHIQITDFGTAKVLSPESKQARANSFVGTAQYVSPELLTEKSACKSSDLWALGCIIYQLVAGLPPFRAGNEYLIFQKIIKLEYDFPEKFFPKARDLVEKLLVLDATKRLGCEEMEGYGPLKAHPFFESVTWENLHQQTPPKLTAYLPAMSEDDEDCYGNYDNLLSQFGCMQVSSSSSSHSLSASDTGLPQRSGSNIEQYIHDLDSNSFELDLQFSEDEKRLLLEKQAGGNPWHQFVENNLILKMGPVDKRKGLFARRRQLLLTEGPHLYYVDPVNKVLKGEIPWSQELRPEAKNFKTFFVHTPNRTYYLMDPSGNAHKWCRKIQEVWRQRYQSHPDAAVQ

GLK/MAP4K3 = biological target: T4, GLK/MAP4K3 (Homo sapiens, UniProt Q8IVH8); experiment: biochemical; conditions: read-out: % enzyme activity, 1 μM; Run 1, Run 2
T4 sequence (Q8IVH8 1-894): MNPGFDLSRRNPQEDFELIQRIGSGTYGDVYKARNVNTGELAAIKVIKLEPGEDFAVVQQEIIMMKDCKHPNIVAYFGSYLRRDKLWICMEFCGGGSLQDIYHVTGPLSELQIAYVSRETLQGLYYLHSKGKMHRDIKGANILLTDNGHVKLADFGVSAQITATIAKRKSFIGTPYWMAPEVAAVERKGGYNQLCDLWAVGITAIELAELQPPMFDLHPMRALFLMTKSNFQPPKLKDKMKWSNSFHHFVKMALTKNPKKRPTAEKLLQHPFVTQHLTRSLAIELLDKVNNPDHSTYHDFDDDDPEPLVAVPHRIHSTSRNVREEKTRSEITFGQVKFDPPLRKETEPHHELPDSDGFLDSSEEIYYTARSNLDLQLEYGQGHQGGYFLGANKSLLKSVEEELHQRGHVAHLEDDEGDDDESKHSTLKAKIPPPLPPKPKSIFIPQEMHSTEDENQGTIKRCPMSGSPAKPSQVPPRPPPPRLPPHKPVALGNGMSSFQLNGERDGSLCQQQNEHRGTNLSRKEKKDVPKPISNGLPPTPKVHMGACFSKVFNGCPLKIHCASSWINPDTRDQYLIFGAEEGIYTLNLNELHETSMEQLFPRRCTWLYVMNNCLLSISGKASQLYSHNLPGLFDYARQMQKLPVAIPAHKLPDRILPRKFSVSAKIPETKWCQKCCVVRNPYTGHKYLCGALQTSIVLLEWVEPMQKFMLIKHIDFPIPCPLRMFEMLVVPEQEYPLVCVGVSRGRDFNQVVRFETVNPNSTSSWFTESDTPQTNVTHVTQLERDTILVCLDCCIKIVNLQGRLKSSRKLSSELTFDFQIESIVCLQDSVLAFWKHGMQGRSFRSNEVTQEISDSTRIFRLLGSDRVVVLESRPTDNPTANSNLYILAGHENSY

MYLK4 = biological target: T5, MYLK4 (Homo sapiens, UniProt Q86YV6); experiment: biochemical; conditions: read-out: % enzyme activity, 1 μM; Run 1, Run 2
T5 sequence (Q86YV6 1-388): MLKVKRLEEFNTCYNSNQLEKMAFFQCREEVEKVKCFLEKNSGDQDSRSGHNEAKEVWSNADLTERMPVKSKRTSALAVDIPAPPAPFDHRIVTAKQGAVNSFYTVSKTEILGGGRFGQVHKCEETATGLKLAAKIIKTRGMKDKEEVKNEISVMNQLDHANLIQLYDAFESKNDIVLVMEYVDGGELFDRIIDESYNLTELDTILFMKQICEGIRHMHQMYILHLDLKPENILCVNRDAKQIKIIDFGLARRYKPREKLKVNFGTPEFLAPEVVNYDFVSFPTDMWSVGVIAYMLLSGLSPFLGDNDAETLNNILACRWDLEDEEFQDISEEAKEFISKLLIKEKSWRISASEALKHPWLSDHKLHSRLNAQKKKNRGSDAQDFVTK

NIM1 = NIM1 (Homo sapiens, UniProt Q8IY84); experiment: biochemical; conditions: read-out: % enzyme activity, 1 μM; Run 1, Run 2
Chain of NIM1 (Q8IY84 whole entry): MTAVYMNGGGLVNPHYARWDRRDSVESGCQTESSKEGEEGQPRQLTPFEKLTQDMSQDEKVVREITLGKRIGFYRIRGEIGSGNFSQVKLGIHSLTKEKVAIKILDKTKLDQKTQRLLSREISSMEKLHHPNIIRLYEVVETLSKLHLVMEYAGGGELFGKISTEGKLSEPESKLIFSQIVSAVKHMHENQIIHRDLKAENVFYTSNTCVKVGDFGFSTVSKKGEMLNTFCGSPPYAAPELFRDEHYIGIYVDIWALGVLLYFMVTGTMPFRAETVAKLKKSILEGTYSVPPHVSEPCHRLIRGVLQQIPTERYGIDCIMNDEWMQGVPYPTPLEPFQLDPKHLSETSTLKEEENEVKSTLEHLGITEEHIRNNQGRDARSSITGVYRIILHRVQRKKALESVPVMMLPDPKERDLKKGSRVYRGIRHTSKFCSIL

T1 sequence (Q9H0K1 whole entry): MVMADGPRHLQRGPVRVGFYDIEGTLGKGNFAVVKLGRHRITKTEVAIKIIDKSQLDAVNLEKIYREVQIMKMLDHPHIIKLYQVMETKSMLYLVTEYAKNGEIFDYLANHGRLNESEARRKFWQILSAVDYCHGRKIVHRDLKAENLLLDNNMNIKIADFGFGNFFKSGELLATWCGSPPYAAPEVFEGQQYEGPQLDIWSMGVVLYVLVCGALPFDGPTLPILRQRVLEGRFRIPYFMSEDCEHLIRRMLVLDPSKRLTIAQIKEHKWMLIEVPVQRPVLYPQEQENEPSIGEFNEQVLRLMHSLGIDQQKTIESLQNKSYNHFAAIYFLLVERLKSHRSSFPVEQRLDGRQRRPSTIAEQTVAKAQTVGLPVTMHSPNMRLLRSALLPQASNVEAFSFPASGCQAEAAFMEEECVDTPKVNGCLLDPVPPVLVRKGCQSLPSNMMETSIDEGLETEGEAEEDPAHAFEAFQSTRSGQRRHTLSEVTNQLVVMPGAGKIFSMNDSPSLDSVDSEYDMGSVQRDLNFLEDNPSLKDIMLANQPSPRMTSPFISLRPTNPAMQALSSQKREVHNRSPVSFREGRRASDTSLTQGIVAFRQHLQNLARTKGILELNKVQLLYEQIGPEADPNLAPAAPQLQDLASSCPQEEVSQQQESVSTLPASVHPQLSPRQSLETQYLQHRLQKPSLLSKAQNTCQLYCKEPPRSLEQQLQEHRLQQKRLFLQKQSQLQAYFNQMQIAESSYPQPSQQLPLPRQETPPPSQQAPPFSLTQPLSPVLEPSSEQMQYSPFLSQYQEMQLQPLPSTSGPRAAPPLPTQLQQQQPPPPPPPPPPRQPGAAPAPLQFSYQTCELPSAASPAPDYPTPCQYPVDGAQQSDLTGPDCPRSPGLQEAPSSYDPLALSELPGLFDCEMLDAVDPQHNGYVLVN
Chain of MST3/STK24 (Q9Y6E0 whole entry): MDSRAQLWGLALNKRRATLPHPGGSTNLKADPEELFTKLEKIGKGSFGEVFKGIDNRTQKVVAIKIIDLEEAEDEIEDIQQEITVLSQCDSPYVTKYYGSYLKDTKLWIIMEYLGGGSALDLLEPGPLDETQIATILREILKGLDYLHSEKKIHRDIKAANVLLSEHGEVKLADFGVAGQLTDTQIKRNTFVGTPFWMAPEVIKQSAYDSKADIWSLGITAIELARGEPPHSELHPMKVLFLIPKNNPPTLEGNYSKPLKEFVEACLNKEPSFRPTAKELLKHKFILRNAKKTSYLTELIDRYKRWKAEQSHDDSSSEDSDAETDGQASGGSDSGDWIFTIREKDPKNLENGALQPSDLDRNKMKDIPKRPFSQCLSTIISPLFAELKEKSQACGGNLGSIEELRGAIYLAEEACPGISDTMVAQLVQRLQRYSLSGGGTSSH

In the case of COc1cc(-c2cncc(-c3ccc(N4CCN(C)CC4)cc3)c2C)cc(F)c1C(N)=O [Compound 26a, 2-Fluoro-6-methoxy-4-(4-methyl-5-(4-(4-methylpiperazin-1-yl)phenyl)pyridin-3-yl)benzamide], the “% enzyme activity” value (SIK2) is reported as 30.68%, the remaining activity at 1 µM (SIK2) is reported as 32% and the “% enzyme activity” value (KSR1) is reported as 93.83%. For the same molecule, the “% enzyme activity” value (MST3/STK24) was 87.91%, the “% enzyme activity” value (PDK1/PDPK1) was 91.49% and the remaining activity at 1 µM (GLK/MAP4K3) was 88.4%. The remaining activity at 1 µM (MYLK4) was 97.7% and the remaining activity at 1 µM (NIM1) was 96.6%.
COc1cc(-c2cncc(-c3ccc(N4C[C@@H](C)N(C)[C@@H](C)C4)cc3)c2C)cc(F)c1C(N)=O [Compound 26c, 2-Fluoro-6-methoxy-4-(4-methyl-5-(4-((3R,5S)-3,4,5-trimethylpiperazin-1-yl)phenyl)pyridin-3-yl)benzamide] was tested, and the “% enzyme activity” value (SIK2) was 43.50%, the remaining activity at 1 µM (SIK2) was 43.9% and the “% enzyme activity” value (KSR1) was 95.91%. The “% enzyme activity” value (MST3/STK24) was 94.57%, the “% enzyme activity” value (PDK1/PDPK1) was 94.36% and the remaining activity at 1 µM (GLK/MAP4K3) was 90.3%. For the same molecule, the remaining activity at 1 µM (MYLK4) was 104% and the remaining activity at 1 µM (NIM1) was 98.2%.
